Here are results for 26 compounds from PMC8286840, “Identifying SARS-CoV-2 antiviral compounds by screening for small molecule inhibitors of Nsp3 papain-like protease” (Biochemical Journal, 2021).

Where a name gives a salt, the structure may show the parent alone. Read-outs that look alike come from different tables or passages of the source. Where a SMILES comes first, the peptide text is derived from it. Side-chain parts run from the residue outwards. [ ]: non-standard residue; d: D form. The star is where a group is joined. Dolaproine = CO[C@@H]([C@@H]1CCCN1)[C@@H](C)C(=O)O; Hexanoyl(6-maleimido) = O=C1C=CC(=O)N1CCCCCC(=O)*; Dil = CC[C@H](C)[C@H](NC)[C@@H](CC(=O)O)OC; X2 = C[C@@H](N*)[C@@H](O)c1ccccc1; NMeV = CN[C@H](C(=O)O)C(C)C; Nicotinoyl = O=C(c1cccnc1)*; Cbz = O=C(OCc1ccccc1)*

In assay [1] the target is T1, SARS-CoV-2 PLpro (nsp3 1564–1878) (Severe acute respiratory syndrome coronavirus 2, UniProt P0DTD1). In words: biochemical. Details: FRET-quenched peptide (Pro3) cleavage by PLpro, 10 min pre-incubation, slope over 20 min, normalised to no-compound control. The following applies: low concentration screen, read-out: % of control remaining.
Assay [2] deals with T1, SARS-CoV-2 PLpro (nsp3 1564–1878). As to the kind of experiment: biochemical. Also on record: FRET-quenched peptide (Pro3) cleavage by PLpro, 10 min pre-incubation, slope over 20 min, normalised to no-compound control. Particulars: high concentration screen, read-out: % of control remaining.
Procedure: The plates were organized with columns 3–22 containing the compounds; the remaining columns were used for reaction controls including substrate only and substrate with enzyme but no compound (Figure 3Aii). The PLpro enzyme was pre-incubated with the compounds for 10 min, and then the reaction was initiated by the addition of substrate. […] We incubated the inhibitors with PLpro before the enzymatic reaction so that the slow-binding inhibitors will not be missed out [21]. […] Fluorescence was read on a Spark multimode microplate reader (Tecan) with an excitation wavelength at 330 nm and emission wavelength at 420 nm. […] An amount of 5 µl of the enzyme was pre-incubated with compounds for 10 min before the addition of 15 µl substrate. Fluorescence was monitored at 2 min for 20 min with 3 min intervals giving a total of seven readings.

In the case of `CCC(Sc1nnc2c(n1)[nH]c1ccccc12)C(=O)N1c2ccccc2Sc2ccccc21` (stereo not drawn) [Inauhzin], the remaining activity at 1.25 µM in assay [1] (Well no.=6158) was 100%. Further, the remaining activity at 3.75 µM in assay [2] (Well no.=6158) was found to be 91.7%.

As to `CC(=O)NCCc1ccc(O)c(O)c1` [N-Acetyldopamine monohydrate], in assay [1] (Well no.=56), the remaining activity at 1.25 µM turned out to be 98.3%. Also, in assay [2] (Well no.=56), the remaining activity at 3.75 µM is 101%.

As to `CC1=C(/C=C/C(C)=C/C=C/C(C)=C\C(=O)O)C(C)(C)CCC1` [13-cis-retinoic acid], the remaining activity at 1.25 µM in assay [1] (Well no.=1348) was found to be 95.9%. Besides, the remaining activity at 3.75 µM in assay [2] (Well no.=1348) was determined as 101%.

On to `O=C(O)c1ccc(C(=O)O)cc1` [Terephthalic acid], for which the remaining activity at 1.25 µM in assay [1] (Well no.=7501) worked out at 106%. Further, in assay [2] (Well no.=7501), the remaining activity at 3.75 µM turned out to be 103%.

In the case of `N[C@@H](CSCCB(O)O)C(=O)O` [BEC (hydrochloride)], the remaining activity at 1.25 µM in assay [1] (Well no.=8165) turned out to be 105%. Further, the remaining activity at 3.75 µM in assay [2] (Well no.=8165) turned out to be 103%.

Consider `O=c1cc(-c2ccccc2)oc2ccc(O)cc12` [6-Hydroxyflavone (6-HF)], for which, in assay [1] (Well no.=8104), the remaining activity at 1.25 µM amounted to 98.9%. For the same compound, in assay [2] (Well no.=8104), the remaining activity at 3.75 µM amounted to 98.5%.

`N=C(N)Nc1ccc(C(=O)Oc2ccc3cc(C(=N)N)ccc3c2)cc1` [Nafamostat mesylate]: the remaining activity at 1.25 µM in assay [1] (Well no.=4809) worked out at 104%. Further, the remaining activity at 3.75 µM in assay [2] (Well no.=4809) was 104%.

For the compound `CC[C@H](C)[C@H](NC(=O)[C@H](Cc1ccc(O)cc1)NC(=O)[C@@H](NC(=O)[C@H](CCCNC(=N)N)NC(=O)[C@@H](N)CC(=O)O)C(C)C)C(=O)N[C@@H](Cc1c[nH]cn1)C(=O)N1CCC[C@H]1C(=O)O` [Angiotensin (1-7)], the remaining activity at 1.25 µM worked out at 96.1% in assay [1] (Well no.=6176) and 99.7% in assay [1] (Well no.=8368). In addition, the remaining activity at 3.75 µM is 96.5% in assay [2] (Well no.=6176) and 96.1% in assay [2] (Well no.=8368).

Consider `Nc1nc2c(ncn2[C@@H]2O[C@H](CO)[C@@H](O)[C@H]2O)c(=O)[nH]1` [Guanosine], for which the remaining activity at 1.25 µM worked out at 96.5% in assay [1] (Well no.=5248), 97.7% in assay [1] (Well no.=6833) and 94.4% in assay [1] (Well no.=7708). In addition, the remaining activity at 3.75 µM in assay [2] (Well no.=5248) stood at 98%; in assay [2] (Well no.=6833), 99.5%; in assay [2] (Well no.=7708) it was 91.8%.

As for `Fc1ccc(C(OCCCc2cnc[nH]2)c2ccc(F)cc2)cc1` [3-(1H-Imidazol-4-yl)propyl di(p-fluorophenyl)methyl ether hydrochloride], the remaining activity at 1.25 µM in assay [1] (Well no.=1019) stood at 93.6%. Moreover, the remaining activity at 3.75 µM in assay [2] (Well no.=1019) was determined as 95.3%.

For `CCNC(=O)[C@H]1O[C@@H](n2cnc3c(N)ncnc32)[C@H](O)[C@@H]1O` [5'-N-Ethylcarboxamidoadenosine], the results for the remaining activity at 1.25 µM in assay [1] (Well no.=694), in assay [1] (Well no.=7950) and in assay [1] (Well no.=8119) were 97.5%, 95.4% and 104%, respectively. Also, the remaining activity at 3.75 µM was found to be 96% in assay [2] (Well no.=694), 96.2% in assay [2] (Well no.=7950) and 102% in assay [2] (Well no.=8119).

Regarding `NC(N)=NC(N)=Nc1ccccc1` [1-Phenylbiguanide], the remaining activity at 1.25 µM in assay [1] (Well no.=1263) came to 102%. Further, the remaining activity at 3.75 µM in assay [2] (Well no.=1263) turned out to be 102%.

For the compound `CC(=O)O[C@H]1[C@H]2[C@@H](OC(=O)Cc3ccccc3)[C@@H](C)C[C@]2(OC(C)=O)C(=O)/C(C)=C/[C@@H]2[C@H](CC[C@@]13CO3)C2(C)C` [Euphorbiasteroid], in assay [1] (Well no.=3605), the remaining activity at 1.25 µM came to 103%. Besides, in assay [2] (Well no.=3605), the remaining activity at 3.75 µM turned out to be 109%.

As to `Cc1ccccc1N1C(=O)c2cc(S(N)(=O)=O)c(Cl)cc2NC1C` (stereo not drawn) [Metolazone], the results for the remaining activity at 1.25 µM in assay [1] (Well no.=943) and in assay [1] (Well no.=8212) were 102% and 94.6%, respectively. Moreover, the remaining activity at 3.75 µM in assay [2] (Well no.=943) was determined as 95.6%; in assay [2] (Well no.=8212), 90.4%.

Turning to `COc1ccccc1N1CCN(CCN(C(=O)c2ccc(F)cc2)c2ccccn2)CC1` [p-MPPF dihydrochloride], the remaining activity at 1.25 µM in assay [1] (Well no.=899) came to 100%. Moreover, the remaining activity at 3.75 µM in assay [2] (Well no.=899) amounted to 101%.

With `N#Cc1c(NC(=O)c2cccc3ccccc23)sc2c1CCCC2` [JNK Inhibitor IX], in assay [1] (Well no.=2518), the remaining activity at 1.25 µM stood at 99.9%. The remaining activity at 3.75 µM in assay [2] (Well no.=2518) turned out to be 103%.

As to `COc1ccc(/C=C\c2cc(OC)c(OC)c(OC)c2)cc1O` [Combretastatin A4], the remaining activity at 1.25 µM in assay [1] (Well no.=5540) was found to be 101%. For the same compound, the remaining activity at 3.75 µM in assay [2] (Well no.=5540) amounted to 102%.

Take `OC[C@H](O)C(O)[C@@H](O)CO` [L-Arabinitol]: the remaining activity at 1.25 µM in assay [1] (Well no.=6789) turned out to be 93.2%. Further, in assay [2] (Well no.=6789), the remaining activity at 3.75 µM was found to be 93.7%.

With `CC[C@H](C)[C@@H]([C@@H](CC(=O)N1CCC[C@H]1[C@H](OC)[C@@H](C)C(=O)N[C@H](C)[C@@H](O)c1ccccc1)OC)N(C)C(=O)[C@@H](NC(=O)[C@H](C(C)C)N(C)C(=O)CCCCCN1C(=O)C=CC1=O)C(C)C` [Mc-MMAE] ({Hexanoyl(6-maleimido)}-[NMeV]V[Dil][Dolaproine]-X2), the remaining activity at 1.25 µM in assay [1] (Well no.=8552) was found to be 93.6%. The remaining activity at 3.75 µM in assay [2] (Well no.=8552) was 98.9%.

In the case of `CCc1c(C(=O)C(N)=O)c2c(OCC(=O)O)cccc2n1Cc1ccccc1` [Varespladib (LY315920)], the remaining activity at 1.25 µM in assay [1] (Well no.=4663) was found to be 105%. The remaining activity at 3.75 µM in assay [2] (Well no.=4663) stood at 104%.

For the compound `CCOc1ccccc1-n1c(C(C)N2CCN(C(=O)COc3ccc(Cl)cc3)CC2)nc2ccccc2c1=O` (stereo not drawn) [Erastin], the remaining activity at 1.25 µM in assay [1] (Well no.=6732) is 98.2%. The remaining activity at 3.75 µM in assay [2] (Well no.=6732) came to 96.5%.

On to `COc1ccc2c3c([nH]c2c1)C(C)=NCC3` [Harmaline], for which the remaining activity at 1.25 µM in assay [1] (Well no.=3286) is 99.5%. Also, the remaining activity at 3.75 µM in assay [2] (Well no.=3286) was 99.1%.

Turning to `CC1=CC(=O)C(C(C)C)=CC1=O` [Thymoquinone], the remaining activity at 1.25 µM in assay [1] (Well no.=3567) was found to be 101%; in assay [1] (Well no.=4095) it was 102%. Moreover, the results for the remaining activity at 3.75 µM in assay [2] (Well no.=3567) and in assay [2] (Well no.=4095) were 102% and 101%, respectively.

Turning to `N=C(N=C(N)N)N1CCOCC1` [Moroxydine.HCl], the remaining activity at 1.25 µM in assay [1] (Well no.=1539) stood at 104%. Further, the remaining activity at 3.75 µM in assay [2] (Well no.=1539) was determined as 105%.

As to `CC[C@H](C)[C@H](NC(=O)[C@@H]1CCCN1C(=O)[C@H](Cc1cnc[nH]1)NC(=O)[C@H](CCCCNC(=O)[C@H](CCCN=C(N)N)NC(=O)OCc1ccccc1)NC(=O)[C@H](Cc1ccc(O)cc1)NC(=O)c1cccnc1)C(=O)O` [CGP-42112] (Nicotinoyl-YK([Arg-Cbz])HPI-OH), the remaining activity at 1.25 µM in assay [1] (Well no.=7652) came out at 98%. Moreover, the remaining activity at 3.75 µM in assay [2] (Well no.=7652) is 97.2%.

For `CCOC(=O)[C@H](CCc1ccccc1)N[C@@H](C)C(=O)N1CCC[C@H]1C(=O)O` [(2Z)-2-butenedioic acid compound with (2S)-1-((2S)-2-{[(1S)-1-(ethoxycarbonyl)-3-phenylpropyl]amino}propanoyl)-2-pyrrolidinecarboxylic acid (1:1)], in assay [1] (Well no.=5659), the remaining activity at 1.25 µM worked out at 102%. Further, the remaining activity at 3.75 µM in assay [2] (Well no.=5659) is 101%.
